Legend:
[1] = wearing study, E2 plasma levels in postmenopausal female subjects; format: in vivo, postmenopausal female subjects (human); conditions: postmenopausal females
[2] = in vitro release of E2 (reciprocating dissolution apparatus, USP Test Dissolution Method V, 32° C.); conditions: Example 1, 7-layer system, over 7 days
Method: The in vitro release of E2 from the 7-layer system was determined, using a reciprocating dissolution apparatus (USP Test Dissolution Method V) at 32° C., to be square-root-time-dependent over 7 days with a total cumulative release of 190 μg/cm^2 in 7 days (the flux was 14.66 μg/cm^2 /hr^1/2). The laminated composite was translucent and resilient, allowing the system to stretch with the stretching of skin when worn.

[3] = E2 in vitro steady-state skin flux across human cadaver skin (diffusion cells, 32° C.); format: in vitro ADME

- constant plasma levels ([1]; Example 3, 30 cm^2 laminate, four day wearing, 5760 min): ~32 pg/mL
- constant plasma concentration of E2 ([1]; Example 5, 30 cm^2 laminate, 7 day wearing): ~45 pg/mL
- concentration at 96 h ([1]; human, plasma, topical or ocular, Example 3, 20 cm^2 laminate, four day wearing, read-out: constant plasma levels): ~0.025 ng/mL
- concentration at 168 h ([1]; human, plasma, topical or ocular, Example 5, 20 cm^2 laminate, 7 day wearing, read-out: constant plasma concentration of E2): ~0.03 ng/mL
- In vitro skin flux ([3]; Example 2, 7-layer, 14% PGML in L1): -0.15 μg/cm^2 /hr
- In vitro skin flux ([3]; Example 3, 7-layer, Medifilm 810, E2 2.0% in L1 and 5.5% in L2): approximately 0.14 μg/cm^2 /hr
- E2 skin flux ([3]; Example 4, 5-layer laminate (prepared similarly to Example 1)): -0.12 μg/cm^2 /hr
- E2 skin flux ([3]; Example 5, 5-layer laminate (prepared similarly to Example 2)): ~ 0.15 μg/cm^2 /hr
- flux from the 5-layer device ([3]; Examples 6 and 7, 5-layer device, Medifilm 810): -0.14 μg/cm^2 /hr
- flux from the 5-layer device ([3]; Examples 8 and 9, 5-layer device, Medifilm 910): -0.11 μg/cm^2 /hr
SMILES: C[C@]12CC[C@@H]3c4ccc(O)cc4CC[C@H]3[C@@H]1CC[C@@H]2O [Example E2, estradiol]
- in vitro release flux of E2 (square-root-time) [2]: 14.66 μg/cm^2 /hr^1/2
- time dependence of in vitro release of E2 [2]: square-root-time-dependent

Source: patent US5006342A, “Resilient transdermal drug delivery device” (Cygnus Corporation, priority 1989, dated 1991)
